Experimental data as given in patent publication US20250051356A1, “RIFABUTIN ANALOGS FOR THE TREATMENT OF DISEASE” (priority 2021, published 2025).
≈ marks a conversion by molar mass, not a printed value. Read-outs that look alike come from different tables or passages of the source.

How the values were obtained:
Format in all cases: cell-based
M. avium (ATCC 25291) = test: MIC against M. avium in CAMHB + ADC; conditions: Mycobacterium avium
M. xenopi (ATCC 19250) = test: MIC against M. xenopi in CAMHB + ADC; conditions: Mycobacterium xenopi
[1] = tested on: A. baumannii (HUMC1 strain); test: MIC by broth microdilution against A. baumannii in RPMI + 10% FCS; conditions: Acinetobacter baumannii, read-out: MIC A. baumannii
[2] = tested on: M. abscessus subsp. abscessus ATCC 19977; test: MIC against M. abscessus in Middlebrook 7H9 + ADC; conditions: Mycobacteroides abscessus
M. kansasii (ATCC 12478) = test: MIC against M. kansasii in CAMHB + ADC; conditions: Mycobacterium kansasii
[3] = tested on: S. aureus (UAMS-1625 strain); test: MIC by broth microdilution against S. aureus; conditions: Staphylococcus aureus, read-out: MIC S. aureus
[4] = ATCC25291, ATCC 25291, CAMHB + ADC (5%), read-out: MIC M. avium
[5] = ATCC19250, read-out: MIC M. xenopi
[6] = ATCC19977, read-out: MIC M. abscessus
[7] = ATCC12478, ATCC 12478, CAMHB + ADC (5%), read-out: MIC M. kansasii
[8] = ATCC19250, ATCC 19250, CAMHB + ADC (5%), read-out: MIC M. xenopi
[9] = ATCC25291, read-out: MIC M. avium
[10] = ATCC12478, read-out: MIC M. kansasii
[11] = ATCC19977, ATCC 19977, 7H9 + ADC, read-out: MIC M. abscessus

Row | SMILES | MIC (M. avium (ATCC 25291); [4]) [µg/mL] | MIC (M. xenopi (ATCC 19250); [5]) [µg/mL] | MIC ([1]; HUMC1 strain, RPMI + 10% FCS) [µg/mL] | MIC [2, 6] [µg/mL] | MIC (M. kansasii (ATCC 12478); [7]) [µg/mL] | MIC [3] [µg/mL] | MIC (M. xenopi (ATCC 19250); [8]) [µg/mL] | MIC (M. avium (ATCC 25291); [9]) [µg/mL] | MIC [1] [µg/mL] | MIC (M. kansasii (ATCC 12478); [10]) [µg/mL] | MIC [2, 11] [µg/mL]
1 | CO[C@H]1/C=C/O[C@@]2(C)Oc3c(C)c(O)c4c(c3C2=O)C2=NC3(CCN(CC(C)C)CC3)NC2=C(NC(=O)/C(C)=C\C=C\[C@H](C)[C@H](O)[C@@H](C)[C@@H](O)[C@@H](C)[C@H](OC(=O)CC(=O)N2CCC(Nc3ccncc3Cl)CC2)[C@@H]1C)C4=O [Compound 110] | 0.25 | 0.125 | 0.06 | 0.125 | 0.008 | 0.125 (≈ 0.115 µM) | – | – | – | – | –
2 | CO[C@H]1/C=C/O[C@@]2(C)Oc3c(C)c(O)c4c(c3C2=O)C2=NC3(CCN(CC(C)C)CC3)NC2=C(NC(=O)/C(C)=C\C=C\[C@H](C)[C@H](O)[C@@H](C)[C@@H](O)[C@@H](C)[C@H](OC(=O)CC(=O)N2CCCN(c3ccc(F)cc3)CC2)[C@@H]1C)C4=O [Compound 66] | 0.125 | – | 0.016 | 0.125 | 0.016 | 0.125 (≈ 0.117 µM) | 0.06 | – | – | – | –
3 | CO[C@H]1/C=C/O[C@@]2(C)Oc3c(C)c(O)c4c(c3C2=O)C2=NC3(CCN(CC(C)C)CC3)NC2=C(NC(=O)/C(C)=C\C=C\[C@H](C)[C@H](O)[C@@H](C)[C@@H](O)[C@@H](C)[C@H](OC(=O)CC(=O)N2CCC(Nc3ccc(C)cc3)CC2)[C@@H]1C)C4=O [Compound 105] | – | 0.03 | – | 0.25 | – | 0.25 (≈ 0.235 µM) | – | 0.125 | 0.06 | 0.004 | –
4 | CO[C@H]1/C=C/O[C@@]2(C)Oc3c(C)c(O)c4c(c3C2=O)C2=NC3(CCN(CC(C)C)CC3)NC2=C(NC(=O)/C(C)=C\C=C\[C@H](C)[C@H](O)[C@@H](C)[C@@H](O)[C@@H](C)[C@H](OC(=O)CC(=O)N2CCN(c3ccccc3)CC2)[C@@H]1C)C4=O [Compound 11] | 0.125 | – | 0.016 | – | 0.008 | 0.25 (≈ 0.241 µM) | 0.06 | – | – | – | 0.125
5 | CO[C@H]1/C=C/O[C@@]2(C)Oc3c(C)c(O)c4c(c3C2=O)C2=NC3(CCN(CC(C)C)CC3)NC2=C(NC(=O)/C(C)=C\C=C\[C@H](C)[C@H](O)[C@@H](C)[C@@H](O)[C@@H](C)[C@H](OC(=O)CC(=O)N2CCN(c3ccncc3)CC2)[C@@H]1C)C4=O [Compound 116] | 2 | – | ≤ 0.002 | – | 0.06 | 0.06 (≈ 0.0579 µM) | 1 | – | – | – | 0.25
6 | CO[C@H]1/C=C/OC2(C)Oc3c(C)c(O)c4c(c3C2=O)C2=NC3(CCN(CC(C)C)CC3)NC2=C(NC(=O)/C(C)=C\C=C\[C@H](C)[C@H](O)[C@@H](C)[C@@H](O)[C@@H](C)[C@H](OC(=O)CC(=O)N2CCC(c3ccccc3)CC2)[C@@H]1C)C4=O (stereo partly drawn) [Compound 101] | – | 0.03 | – | 0.125 | – | 0.5 (≈ 0.483 µM) | – | 0.03 | 0.06 | 0.002 | –
7 | CO[C@H]1/C=C/OC2(C)Oc3c(C)c(O)c4c(c3C2=O)C2=NC3(CCN(CC(C)C)CC3)NC2=C(NC(=O)/C(C)=C\C=C\[C@H](C)[C@H](O)[C@@H](C)[C@@H](O)[C@@H](C)[C@H](OC(=O)CCC(=O)N2CCCN(c3ccc(F)cc3)CC2)[C@@H]1C)C4=O (stereo partly drawn) [Compound 83] | 0.25 | – | 0.016 | – | 0.008 | 0.5 (≈ 0.462 µM) | 0.03 | – | – | – | 0.25
8 | CO[C@H]1/C=C/O[C@@]2(C)Oc3c(C)c(O)c4c(c3C2=O)C2=NC3(CCN(CC(C)C)CC3)NC2=C(NC(=O)/C(C)=C\C=C\[C@H](C)[C@H](O)[C@@H](C)[C@@H](O)[C@@H](C)[C@H](OC(=O)CC(=O)N2CCC(OC3CCC(C)CC3)CC2)[C@@H]1C)C4=O (stereo partly drawn) [Compound 67] | 0.25 | – | 0.008 | – | 0.008 | 0.25 (≈ 0.234 µM) | 0.125 | – | – | – | 0.125
9 | CO[C@H]1/C=C/O[C@@]2(C)Oc3c(C)c(O)c4c(c3C2=O)C2=NC3(CCN(CC(C)C)CC3)NC2=C(NC(=O)/C(C)=C\C=C\[C@H](C)[C@H](O)[C@@H](C)[C@@H](O)[C@@H](C)[C@H](OC(=O)CC(=O)N2CCC(C(=O)c3ccccc3)CC2)[C@@H]1C)C4=O [Compound 55] | 1 | – | 0.016 | – | 0.016 | 0.5 (≈ 0.471 µM) | 0.06 | – | – | – | 0.25
10 | CO[C@H]1/C=C/O[C@@]2(C)Oc3c(C)c(O)c4c(c3C2=O)C2=NC3(CCN(CC(C)C)CC3)NC2=C(NC(=O)/C(C)=C\C=C\[C@H](C)[C@H](O)[C@@H](C)[C@@H](O)[C@@H](C)[C@H](OC(=O)CC(=O)N2CCN(c3ccccn3)CC2)[C@@H]1C)C4=O [Compound 99] | 0.125 | – | 0.008 | – | 0.004 | 0.06 (≈ 0.0579 µM) | 0.125 | – | – | – | 0.25
11 | CO[C@H]1/C=C/O[C@@]2(C)Oc3c(C)c(O)c4c(c3C2=O)C2=NC3(CCN(CC(C)C)CC3)NC2=C(NC(=O)/C(C)=C\C=C\[C@H](C)[C@H](O)[C@@H](C)[C@@H](O)[C@@H](C)[C@H](OC(=O)CC(=O)N2CCC(Oc3ccccc3)CC2)[C@@H]1C)C4=O [Compound 57] | – | 0.03 | – | 0.125 | – | 0.5 (≈ 0.476 µM) | – | 0.125 | 0.03 | 0.008 | –
12 | CO[C@H]1/C=C/O[C@@]2(C)Oc3c(C)c(O)c4c(c3C2=O)C2=NC3(CCN(CC(C)C)CC3)NC2=C(NC(=O)/C(C)=C\C=C\[C@H](C)[C@H](O)[C@@H](C)[C@@H](O)[C@@H](C)[C@H](OC(=O)CC(=O)N2CCC(Nc3ccccc3)CC2)[C@@H]1C)C4=O [Compound 44] | – | 0.03 | – | 0.25 | – | 0.25 (≈ 0.238 µM) | – | 0.06 | 0.008 | 0.004 | –
13 | CO[C@H]1/C=C/O[C@@]2(C)Oc3c(C)c(O)c4c(c3C2=O)C2=NC3(CCN(CC(C)C)CC3)NC2=C(NC(=O)/C(C)=C\C=C\[C@H](C)[C@H](O)[C@@H](C)[C@@H](O)[C@@H](C)[C@H](OC(=O)CC(=O)N2CCC(Nc3ccccc3C#N)CC2)[C@@H]1C)C4=O [Compound 107] | – | 0.06 | – | 0.125 | – | 0.25 (≈ 0.233 µM) | – | 0.125 | 0.5 | 0.016 | –
14 | CO[C@H]1/C=C/O[C@@]2(C)Oc3c(C)c(O)c4c(c3C2=O)C2=NC3(CCN(CC(C)C)CC3)NC2=C(NC(=O)/C(C)=C\C=C\[C@H](C)[C@H](O)[C@@H](C)[C@@H](O)[C@@H](C)[C@H](OC(=O)CC(=O)N2CCN(C3Cc5ccccc5C3)CC2)[C@@H]1C)C4=O [Compound 95] | 0.125 | – | 0.03 | – | 0.002 | 0.5 (≈ 0.465 µM) | 0.03 | – | – | – | 0.125
15 | CO[C@H]1/C=C/OC2(C)Oc3c(C)c(O)c4c(c3C2=O)C2=NC3(CCN(CC(C)C)CC3)NC2=C(NC(=O)/C(C)=C\C=C\[C@H](C)[C@H](O)[C@@H](C)[C@@H](O)[C@@H](C)[C@H](OC(=O)CC(=O)NC2CCN(Cc3ccccc3)C2)[C@@H]1C)C4=O (stereo partly drawn) [Compound 93] | 0.5 | – | 0.008 | – | 0.008 | 0.125 (≈ 0.119 µM) | 0.25 | – | – | – | 0.25
16 | CO[C@H]1/C=C/OC2(C)Oc3c(C)c(O)c4c(c3C2=O)C2=NC3(CCN(CC(C)C)CC3)NC2=C(NC(=O)/C(C)=C\C=C\[C@H](C)[C@H](O)[C@@H](C)[C@@H](O)[C@@H](C)[C@H](OC(=O)CCC(=O)N2CCC(N(C)c3ccccc3)CC2)[C@@H]1C)C4=O (stereo partly drawn) [Compound 82] | 0.25 | – | 0.016 | – | 0.016 | 0.5 (≈ 0.464 µM) | 0.03 | – | – | – | 0.25
